Activity calls are given as the source filed them.
How the values were obtained:
[1] = target: Glyceraldehyde-3-phosphate dehydrogenase (Homo sapiens, UniProt P04406)
[2] = target: Alkaline phosphatase, placental type (Homo sapiens, UniProt P05187); assay: human placental alkaline phosphatase inhibition – biochemical, luminescence, confirmation (AID 1512); type: functional
[3] = target: T1, Alkaline phosphatase, tissue-nonspecific isozyme (Homo sapiens, UniProt P05186); assay: potency against alkaline phosphatase TNAP – biochemical, luminescent, dose response, SAR follow-up (AID 1056)
T1 sequence (P05186 whole entry): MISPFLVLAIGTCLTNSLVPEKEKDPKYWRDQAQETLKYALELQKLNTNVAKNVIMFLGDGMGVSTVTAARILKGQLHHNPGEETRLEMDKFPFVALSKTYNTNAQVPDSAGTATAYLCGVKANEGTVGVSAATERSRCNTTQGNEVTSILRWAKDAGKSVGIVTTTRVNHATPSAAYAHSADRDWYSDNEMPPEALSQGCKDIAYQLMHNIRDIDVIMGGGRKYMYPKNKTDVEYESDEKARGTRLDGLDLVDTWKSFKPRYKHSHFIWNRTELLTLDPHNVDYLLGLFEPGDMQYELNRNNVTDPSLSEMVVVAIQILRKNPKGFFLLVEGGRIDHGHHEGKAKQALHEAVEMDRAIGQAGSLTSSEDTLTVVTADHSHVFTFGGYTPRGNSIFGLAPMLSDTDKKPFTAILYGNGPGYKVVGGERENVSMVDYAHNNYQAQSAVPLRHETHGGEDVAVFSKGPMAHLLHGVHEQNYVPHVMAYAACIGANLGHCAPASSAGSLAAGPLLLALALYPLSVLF

[4] = target: DNA dC->dU-editing enzyme APOBEC-3G (Homo sapiens, UniProt Q9HC16); assay: Dose Response confirmation of small molecule APOBEC3G DNA Deaminase Inhibitors via a fluorescence-based single-stranded DNA deaminase assay. [Related pubchem assays (depositor defined):AID493012, AID493028]; type: functional
Chain of DNA dC->dU-editing enzyme APOBEC-3G (Q9HC16 whole entry): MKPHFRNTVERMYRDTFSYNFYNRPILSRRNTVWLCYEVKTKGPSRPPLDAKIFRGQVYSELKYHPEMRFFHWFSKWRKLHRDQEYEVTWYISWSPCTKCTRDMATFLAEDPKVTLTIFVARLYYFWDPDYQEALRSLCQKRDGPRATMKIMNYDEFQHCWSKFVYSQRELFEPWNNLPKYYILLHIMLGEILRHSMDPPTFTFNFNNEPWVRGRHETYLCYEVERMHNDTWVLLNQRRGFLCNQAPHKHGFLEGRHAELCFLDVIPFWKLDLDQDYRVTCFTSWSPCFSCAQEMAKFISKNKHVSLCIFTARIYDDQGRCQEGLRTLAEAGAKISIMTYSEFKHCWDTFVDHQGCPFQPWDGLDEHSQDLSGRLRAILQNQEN

[5] = target: DNA dC->dU-editing enzyme APOBEC-3A (Homo sapiens, UniProt P31941); assay: A3A deaminase inhibition for selectivity – biochemical, dose response (AID 504722); type: functional
Chain of DNA dC->dU-editing enzyme APOBEC-3A (P31941 whole entry): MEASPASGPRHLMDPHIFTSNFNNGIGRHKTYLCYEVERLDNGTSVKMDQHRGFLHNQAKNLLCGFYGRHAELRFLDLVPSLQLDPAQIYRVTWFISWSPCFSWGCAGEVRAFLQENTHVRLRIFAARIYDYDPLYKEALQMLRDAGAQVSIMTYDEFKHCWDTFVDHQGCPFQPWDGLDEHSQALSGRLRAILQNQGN

[6] = Luminescence Cell-Based Dose Response HTS to Identify Activators of Luciferase Translation or Activity in H4 […] Cells. [Related pubchem assays: 1829 (Project Summary), 1814 (Primary HTS)]; type: functional
H4 = assay: Luminescence Cell-Based Dose Response HTS to Identify Activators of 5'UTR Stem-Loop Driven Prion Protein mRNA Translation in H4 Neuroglioblastoma Cells. [Related pubchem assays: 1829 (Project Summary), 1814 (Primary HTS)]; type: functional; details: Homo sapiens
[7] = Luminescence Cell-Based Dose Confirmation HTS to Identify Activators of 5'UTR Stem-Loop Driven Alpha-Synuclein mRNA Translation in H4 Neuroglioblastoma Cells. [Related pubchem assays: 1829 (Project Summary), 1814 (Primary HTS)]; type: functional
[8] = target: Intestinal-type alkaline phosphatase (Homo sapiens, UniProt P09923); assay: human intestinal alkaline phosphatase activators, dose response, biochemical, luminescence, uHTS hits (AID 463120); type: functional
Chain of Intestinal-type alkaline phosphatase (P09923 whole entry): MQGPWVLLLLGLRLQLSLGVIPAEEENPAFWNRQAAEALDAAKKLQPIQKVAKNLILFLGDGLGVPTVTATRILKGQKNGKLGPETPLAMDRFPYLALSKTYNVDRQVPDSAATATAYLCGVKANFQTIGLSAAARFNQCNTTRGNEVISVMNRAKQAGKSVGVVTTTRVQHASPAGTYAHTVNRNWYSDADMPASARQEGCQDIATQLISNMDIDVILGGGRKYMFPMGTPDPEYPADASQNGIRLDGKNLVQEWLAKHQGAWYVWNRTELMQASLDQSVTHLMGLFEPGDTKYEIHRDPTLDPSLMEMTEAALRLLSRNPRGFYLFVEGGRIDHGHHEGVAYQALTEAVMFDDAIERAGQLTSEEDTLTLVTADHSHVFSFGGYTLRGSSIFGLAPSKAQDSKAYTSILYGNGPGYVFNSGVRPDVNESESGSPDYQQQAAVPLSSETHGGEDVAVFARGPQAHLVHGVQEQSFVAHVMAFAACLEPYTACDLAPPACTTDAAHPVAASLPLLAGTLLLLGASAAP

[9] = target: T2, Sphingosine 1-phosphate receptor 4 (Homo sapiens, UniProt O95977); assay: Late-stage fluorescence dose response cell-based assay to identify agonists of the Sphingosine 1-Phosphate Receptor 4 (S1P4): purchased compounds EC50. [Related pubchem assays (depositor defined):AID1509, AID1523, AID1563, AID1686, AID1701, AID1801]; type: functional
T2 sequence (O95977 whole entry): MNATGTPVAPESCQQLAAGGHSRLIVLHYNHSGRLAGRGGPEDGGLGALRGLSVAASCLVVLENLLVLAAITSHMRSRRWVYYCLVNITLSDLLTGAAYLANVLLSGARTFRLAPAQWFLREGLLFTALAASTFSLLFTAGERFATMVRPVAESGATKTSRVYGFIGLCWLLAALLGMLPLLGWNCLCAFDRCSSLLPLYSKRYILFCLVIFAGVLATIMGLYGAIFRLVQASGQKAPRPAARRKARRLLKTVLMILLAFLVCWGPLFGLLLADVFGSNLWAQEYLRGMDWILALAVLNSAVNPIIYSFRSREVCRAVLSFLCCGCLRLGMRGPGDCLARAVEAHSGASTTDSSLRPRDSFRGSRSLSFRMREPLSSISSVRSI

[10] = target: Induced myeloid leukemia cell differentiation protein Mcl-1 (Homo sapiens, UniProt Q07820); type: functional
Chain of Induced myeloid leukemia cell differentiation protein Mcl-1 (Q07820 whole entry): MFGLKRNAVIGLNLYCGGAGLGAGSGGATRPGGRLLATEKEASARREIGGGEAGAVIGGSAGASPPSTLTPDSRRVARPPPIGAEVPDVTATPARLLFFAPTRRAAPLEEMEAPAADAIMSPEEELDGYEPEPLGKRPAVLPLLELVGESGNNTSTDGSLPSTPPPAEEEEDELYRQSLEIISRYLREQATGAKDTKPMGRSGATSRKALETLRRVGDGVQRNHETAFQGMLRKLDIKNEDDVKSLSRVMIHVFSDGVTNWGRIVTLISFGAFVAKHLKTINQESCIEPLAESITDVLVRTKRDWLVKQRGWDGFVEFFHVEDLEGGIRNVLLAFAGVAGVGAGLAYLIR

Estrogen receptor beta = Estrogen receptor beta (Homo sapiens, UniProt Q92731); assay: blockers of SRC-3 recruitment to ERβ – biochemical, ELISA, streptavidin-HRP readout, orthogonal assay, confirmation (AID 1060)
Chain of Estrogen receptor beta (Q92731 whole entry): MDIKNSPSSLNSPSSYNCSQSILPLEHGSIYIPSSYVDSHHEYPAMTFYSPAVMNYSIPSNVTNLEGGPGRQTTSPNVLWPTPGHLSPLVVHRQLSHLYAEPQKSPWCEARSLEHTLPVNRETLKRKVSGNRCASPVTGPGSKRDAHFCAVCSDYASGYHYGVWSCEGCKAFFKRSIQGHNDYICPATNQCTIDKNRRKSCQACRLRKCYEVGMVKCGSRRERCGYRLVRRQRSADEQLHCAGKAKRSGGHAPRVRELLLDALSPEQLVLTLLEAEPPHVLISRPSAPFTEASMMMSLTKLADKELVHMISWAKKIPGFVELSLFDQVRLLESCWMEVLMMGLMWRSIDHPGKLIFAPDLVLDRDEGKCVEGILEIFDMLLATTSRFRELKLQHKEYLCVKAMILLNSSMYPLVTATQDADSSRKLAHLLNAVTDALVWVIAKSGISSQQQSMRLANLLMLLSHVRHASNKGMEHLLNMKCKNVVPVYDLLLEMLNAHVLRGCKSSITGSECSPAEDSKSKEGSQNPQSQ

[11] = target: Eukaryotic translation initiation factor 4E (Mus musculus, UniProt P63073); assay: blockers of eIF4G binding by eIF4E – biochemical, TR-FRET, dose response (AID 855); type: functional;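 further: potency for disrupting eIF4E binding to eIF4GI seen as loss of FRET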
Chain of Eukaryotic translation initiation factor 4E (P63073 whole entry): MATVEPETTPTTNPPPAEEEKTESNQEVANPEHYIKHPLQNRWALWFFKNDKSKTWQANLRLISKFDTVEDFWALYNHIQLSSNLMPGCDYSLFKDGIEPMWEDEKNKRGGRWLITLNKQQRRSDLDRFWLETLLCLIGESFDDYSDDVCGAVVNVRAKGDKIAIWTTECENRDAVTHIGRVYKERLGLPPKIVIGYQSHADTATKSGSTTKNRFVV

Bcl-2-related protein A1 = target: T3, Bcl-2-related protein A1 (Mus musculus, UniProt Q07440); type: functional;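 further: confirmatory dose–response counterscreen on Bfl-1, used to check hits from a UBC13 polyubiquitin inhibitor campaign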
T3 sequence (Q07440 whole entry): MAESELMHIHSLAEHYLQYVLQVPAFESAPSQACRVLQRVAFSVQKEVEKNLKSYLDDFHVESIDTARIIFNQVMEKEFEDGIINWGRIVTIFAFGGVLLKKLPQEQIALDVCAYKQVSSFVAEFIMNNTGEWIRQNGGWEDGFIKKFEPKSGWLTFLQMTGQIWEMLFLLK

[12] = target: T4, Ubiquitin-conjugating enzyme E2 N (Homo sapiens, UniProt P61088); type: functional
T4 sequence (P61088 whole entry): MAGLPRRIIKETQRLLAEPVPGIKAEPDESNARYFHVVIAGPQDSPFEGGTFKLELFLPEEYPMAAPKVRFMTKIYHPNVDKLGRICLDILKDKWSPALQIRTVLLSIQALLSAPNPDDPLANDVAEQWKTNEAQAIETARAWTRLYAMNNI

[13] = target: T4, Ubiquitin-conjugating enzyme E2 N; type: functional; remark: listed apart in the source
[14] = Vero E6 cell cytotoxicity, dose response, cytotoxicity control for non-replicating M. tuberculosis project, secondary assay (AID 492998); type: functional, VeroE6; details: Vero C1008
[15] = microbe, parasite or virus in culture; type: functional; details: Mycobacterium tuberculosis
[16] = THP-1 cell cytotoxicity, dose response, cytotoxicity control for non-replicating M. tuberculosis project (AID 489025); type: functional
cells [17] = type: functional
Hexokinase = target: T5, Hexokinase (Trypanosoma brucei, UniProt Q38C41); assay: Confirmation assay for inhibitors of Trypanosoma brucei hexokinase 1-Analogue-first series. [Related pubchem assays (depositor defined):AID1430, AID1632, AID2516, AID2560, AID2579, AID2600, AID449725, AID492951]; type: functional
T5 sequence (Q38C41 whole entry): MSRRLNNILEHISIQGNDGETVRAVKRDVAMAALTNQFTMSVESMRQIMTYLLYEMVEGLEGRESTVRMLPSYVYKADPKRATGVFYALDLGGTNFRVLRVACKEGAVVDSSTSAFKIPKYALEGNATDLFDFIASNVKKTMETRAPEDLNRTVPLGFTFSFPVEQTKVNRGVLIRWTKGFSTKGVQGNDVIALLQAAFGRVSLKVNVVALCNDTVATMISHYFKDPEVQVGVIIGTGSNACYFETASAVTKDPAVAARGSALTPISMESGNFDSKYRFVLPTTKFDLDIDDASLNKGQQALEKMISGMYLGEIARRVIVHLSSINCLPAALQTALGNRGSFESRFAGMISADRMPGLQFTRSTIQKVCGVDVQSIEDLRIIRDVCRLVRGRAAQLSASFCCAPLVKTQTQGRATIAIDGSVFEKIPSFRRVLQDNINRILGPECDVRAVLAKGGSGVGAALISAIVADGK

[18] = target: G-protein coupled receptor 55 (Homo sapiens, UniProt Q9Y2T6); assay: selective activators of receptor GPR55 – imaging, U2OS cells, beta-arrestin-GFP redistribution, primary screen (AID 1961); type: functional
Chain of G-protein coupled receptor 55 (Q9Y2T6 whole entry): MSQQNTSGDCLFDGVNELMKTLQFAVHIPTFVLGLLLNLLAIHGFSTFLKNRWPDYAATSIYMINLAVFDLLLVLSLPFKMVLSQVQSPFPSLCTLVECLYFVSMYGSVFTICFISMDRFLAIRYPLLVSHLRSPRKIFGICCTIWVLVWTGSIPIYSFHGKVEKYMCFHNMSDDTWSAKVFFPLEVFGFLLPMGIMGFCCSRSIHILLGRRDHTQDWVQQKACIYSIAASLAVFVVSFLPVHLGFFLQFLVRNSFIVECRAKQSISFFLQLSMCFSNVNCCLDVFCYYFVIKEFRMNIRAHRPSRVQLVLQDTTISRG

CAAX prenyl protease 2 = target: T6, CAAX prenyl protease 2 (Saccharomyces cerevisiae S288c, UniProt Q03530); type: biochemical
T6 sequence (Q03530 whole entry): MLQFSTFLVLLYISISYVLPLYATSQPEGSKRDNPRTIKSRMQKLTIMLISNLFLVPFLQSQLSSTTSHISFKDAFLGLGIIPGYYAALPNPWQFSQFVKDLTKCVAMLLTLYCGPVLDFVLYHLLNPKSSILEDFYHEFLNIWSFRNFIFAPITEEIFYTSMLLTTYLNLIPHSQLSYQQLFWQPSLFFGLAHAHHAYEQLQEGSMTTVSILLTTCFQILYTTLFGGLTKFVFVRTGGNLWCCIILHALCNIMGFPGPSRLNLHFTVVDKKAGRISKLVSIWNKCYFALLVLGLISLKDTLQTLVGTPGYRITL

[19] = target: T7, Polyadenylate-binding protein 1 (Homo sapiens, UniProt P11940); assay: MLLE binding blockers, Cy5 peptide tracer – biochemical, fluorescence polarization, Cy5-PAM2 peptide, secondary, miRNA deadenylation inhibitor project, dose response (AID 602260); type: functional; details: read-out: IC50_Mean
T7 sequence (P11940 whole entry, the tested form may be a part): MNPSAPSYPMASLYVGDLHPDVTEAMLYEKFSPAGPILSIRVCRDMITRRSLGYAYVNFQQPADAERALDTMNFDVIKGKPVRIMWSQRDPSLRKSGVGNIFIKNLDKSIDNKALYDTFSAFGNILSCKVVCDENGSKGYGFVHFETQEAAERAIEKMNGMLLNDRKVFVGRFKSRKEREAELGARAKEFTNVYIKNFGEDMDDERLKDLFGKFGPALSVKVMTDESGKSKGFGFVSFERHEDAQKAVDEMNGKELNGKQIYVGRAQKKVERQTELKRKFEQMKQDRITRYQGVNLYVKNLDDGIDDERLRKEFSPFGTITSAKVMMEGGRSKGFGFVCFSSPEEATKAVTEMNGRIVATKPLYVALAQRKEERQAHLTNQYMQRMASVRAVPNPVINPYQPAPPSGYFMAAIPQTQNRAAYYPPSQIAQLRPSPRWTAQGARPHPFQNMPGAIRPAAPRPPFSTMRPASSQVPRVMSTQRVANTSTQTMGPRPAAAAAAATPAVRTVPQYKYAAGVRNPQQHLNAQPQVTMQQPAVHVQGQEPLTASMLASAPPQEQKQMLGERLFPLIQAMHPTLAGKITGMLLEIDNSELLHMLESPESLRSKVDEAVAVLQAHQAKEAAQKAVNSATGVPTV

[20] = target: T7, Polyadenylate-binding protein 1; assay: MLLE domain peptide-binding blockers, IC50 – biochemical, fluorescence polarization, FITC-PAM2 peptide, dose response (AID 602259); type: functional; details: read-out: IC50_Mean
[21] = target: E3 ubiquitin-protein ligase XIAP (Homo sapiens, UniProt P98170); assay: Counter Screen using XIAP-Bir3 for Chemical Antagonists of Bir1/2 domains of IAP-family anti-apoptotic proteins. [Related pubchem assays (depositor defined):AID1018, AID1449, AID1514, AID1638, AID1749, AID1750, AID488957, AID488963]
Chain of E3 ubiquitin-protein ligase XIAP (P98170 whole entry): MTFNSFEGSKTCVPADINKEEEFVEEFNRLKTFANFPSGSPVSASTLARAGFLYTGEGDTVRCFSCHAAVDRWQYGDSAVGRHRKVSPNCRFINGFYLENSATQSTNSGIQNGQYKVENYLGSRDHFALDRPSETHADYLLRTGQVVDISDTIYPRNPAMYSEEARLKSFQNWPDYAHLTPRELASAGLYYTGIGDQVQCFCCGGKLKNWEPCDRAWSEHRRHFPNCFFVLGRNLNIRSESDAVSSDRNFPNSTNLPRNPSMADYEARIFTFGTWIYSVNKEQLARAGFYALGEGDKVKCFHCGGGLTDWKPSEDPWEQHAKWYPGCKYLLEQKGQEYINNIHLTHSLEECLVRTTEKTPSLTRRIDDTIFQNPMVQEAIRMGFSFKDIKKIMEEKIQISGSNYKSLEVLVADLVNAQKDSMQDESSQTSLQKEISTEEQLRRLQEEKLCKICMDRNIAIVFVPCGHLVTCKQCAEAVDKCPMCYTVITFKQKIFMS

cells [22] = assay: cells

Chain of Glyceraldehyde-3-phosphate dehydrogenase (P04406 whole entry): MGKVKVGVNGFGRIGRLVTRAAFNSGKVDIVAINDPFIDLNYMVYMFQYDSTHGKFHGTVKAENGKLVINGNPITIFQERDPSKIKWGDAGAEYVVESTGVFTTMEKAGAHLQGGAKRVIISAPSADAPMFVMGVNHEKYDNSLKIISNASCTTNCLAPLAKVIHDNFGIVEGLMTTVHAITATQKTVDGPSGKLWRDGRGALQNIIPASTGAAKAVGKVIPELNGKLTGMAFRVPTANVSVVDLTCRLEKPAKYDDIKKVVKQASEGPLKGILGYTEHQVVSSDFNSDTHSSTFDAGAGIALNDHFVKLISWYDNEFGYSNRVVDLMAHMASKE
Chain of Alkaline phosphatase, placental type (P05187 whole entry): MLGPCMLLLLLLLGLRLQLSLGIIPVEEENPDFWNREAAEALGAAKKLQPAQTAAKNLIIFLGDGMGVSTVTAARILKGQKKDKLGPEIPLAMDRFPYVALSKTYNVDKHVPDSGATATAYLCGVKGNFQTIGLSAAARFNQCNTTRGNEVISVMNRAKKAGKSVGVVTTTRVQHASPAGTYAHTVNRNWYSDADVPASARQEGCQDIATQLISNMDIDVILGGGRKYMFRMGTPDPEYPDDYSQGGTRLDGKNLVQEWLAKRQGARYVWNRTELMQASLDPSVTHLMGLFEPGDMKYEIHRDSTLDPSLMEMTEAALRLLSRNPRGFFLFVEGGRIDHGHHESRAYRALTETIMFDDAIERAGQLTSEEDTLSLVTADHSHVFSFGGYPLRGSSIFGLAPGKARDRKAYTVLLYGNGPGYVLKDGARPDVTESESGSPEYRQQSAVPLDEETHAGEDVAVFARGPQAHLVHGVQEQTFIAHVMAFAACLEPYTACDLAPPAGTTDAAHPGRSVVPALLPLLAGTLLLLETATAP

Cn1ncc2c1ncn1c(-c3ccccc3)nnc21
IC50 [1]: > 100 µM (not active)
IC50 [2]: > 100 µM (inactive)
IC50 [3]: > 100 µM (inactive)

Cc1nc(-c2ccccc2)sc1-c1n[nH]c(=S)n1C
IC50 [4]: 4.9 µM (active)
IC50 [5]: > 100 µM (inactive)

Cc1ccc(S(=O)(=O)Nc2nc3ccccc3nc2NCc2ccco2)cc1
EC50 [6]: 10.8 µM (active)
EC50 (H4): 7.32 µM (active)
EC50 [7]: 8.02 µM (active)
EC50 [8]: > 100 µM (inactive)

Cc1ccc(OCC(=O)N(C)CCOc2ccc(Cl)cc2)c([N+](=O)[O-])n1
EC50 [9]: > 50 µM (inactive)

CC(C)CSc1nnc(S)s1
IC50 [4]: 3.32 µM (active)
IC50 [5]: > 100 µM (inactive)

Cc1ccc(OCc2c(Cl)cccc2Cl)c([N+](=O)[O-])n1
EC50 [9]: > 50 µM (inactive)

Cc1ccc(OCc2cccc(COc3ccc(C)nc3[N+](=O)[O-])c2)c([N+](=O)[O-])n1
EC50 [9]: > 50 µM (inactive)

Nc1c(C(=O)NCc2ccco2)sc2nc3c(cc12)C(=O)CCC3
IC50 [10]: 3.38 µM (active)
IC50 (Estrogen receptor beta): 6.25 µM (not active)
IC50 [11]: > 64 µM (inactive)

C#CCOCCOCCOCCNc1nc(N2CCN(C(=O)[C@H](CCCN=C(N)N)n3cc(C(N)[C@@H](C)CC)nn3)CC2)nc(N2CCN(C(=O)[C@H](CCCCN)n3cc([C@@H](N)[C@H](C)CC)nn3)CC2)n1 (stereo partly drawn)
IC50 (Bcl-2-related protein A1): > 20 µM (inactive)
IC50 [12]: 18.4 µM (active)
IC50 [13]: 15.2 µM (active)

O=C(NNC(=O)c1nn(-c2ccc(F)cc2)ccc1=O)c1ccc(Cl)cc1
IC50 (Bcl-2-related protein A1): > 20 µM (inactive)
IC50 [12]: 19.8 µM (active)
IC50 [13]: 18.9 µM (active)

CNC(C)C#Cc1ccc2oc3cc(C)c(C)cc3c(=O)c2c1 (stereo not drawn)
CC50 [14]: > 20 µM (active)
CC50 [15]: 29 µM (active)
CC50 [16]: 22.2 µM (active)
IC50 (cells [17]): 11.8 µM (active)

COc1ccc(C(=O)NC(CC(=O)O)c2ccc(Cl)cc2)cc1 (stereo not drawn)
IC50 (Hexokinase): > 25 µM (inactive)

Nc1ccc(Oc2ccc3nc(-c4ccccc4)c(-c4ccccc4)nc3c2)cc1
EC50 [18]: 1.91 µM (active)

O=c1c2ccccc2cnn1Cc1nnc(S)n1-c1ccc(Cl)cc1
IC50 [4]: 5.01 µM (active)
IC50 [5]: > 100 µM (inactive)

CCOC(=O)C1CCCN(C(=O)CCn2nnnc2CN2CCOCC2)C1 (stereo not drawn)
AC50 (CAAX prenyl protease 2): 27.9 µM (active)

COc1ccccc1-c1nnc(SCC(=O)Nc2ccccc2[N+](=O)[O-])[nH]1
IC50 [1]: > 100 µM (not active)
IC50 [2]: > 100 µM (inactive)
IC50 [3]: 13.3 µM (active)

COc1cc(NS(=O)(=O)c2ccc(NC(=S)NC(=O)/C=C/c3ccc(F)cc3)cc2)ncn1
IC50 [19]: > 66 µM (inactive)
IC50 [20]: > 66 µM (inactive)
IC50 [21]: > 20 µM (inactive)

CC(=O)N1CCN(C2=NC(=O)/C(=C/c3ccc(OS(=O)(=O)c4ccccc4)cc3)S2)CC1
IC50 (cells [22]): 37.9 µM (active)

COc1ccccc1CC(=O)Nc1ccc2c(c1)C(=O)NC2=O
EC50 [18]: 14.9 µM (inactive)

Cc1[nH]c2ccccc2c1/C=N/Nc1ccc([N+](=O)[O-])cc1
IC50 [10]: < 0.4 µM (active)
IC50 (cells [22]): 27 µM (active)

O=C1C2C3C=CC(C3)C2C(=O)N1CCCCN1C(=O)C2C3C=CC(C3)C2C1=O (stereo not drawn)
IC50 [11]: > 64 µM (inactive)

CCCCNC(=O)CC1N=C2c3ccccc3N=C(SCC(=O)Nc3ccc(OC)cc3)N2C1=O (stereo not drawn)
IC50 (cells [22]): 37 µM (active)

COc1ccc(C(=O)Nc2cc(C(=O)O)ccc2Cl)cc1
IC50 (Hexokinase): > 25 µM (inactive)

COc1ccc(-c2[nH]nc(-c3ccccc3)c2-c2nc3ccccc3[nH]2)cc1
IC50 [1]: 81.2 µM (active)
IC50 [2]: > 100 µM (inactive)
IC50 [3]: > 100 µM (inactive)

Reference: ChEMBL document CHEMBL1201862, “PubChem BioAssay data set” (2004)
